# Assay results published in patent US11084847B2, “Polyamide compound and use thereof” (SICHUAN KELUN-BIOTECH BIOPHARMACEUTICAL CO., LTD., priority 2016, dated 2021).
# Read-outs that look alike come from different tables or passages of the source.
# What was measured:
# [1] = target: T1, human κ-opioid receptor (KOR) (Homo sapiens, UniProt P41145); assay: κ-opioid receptor agonistic effect (inhibition of adenylate cyclase, cAMP assay); type: cell-based
# T1 construct: expressed in transfected cells
# Experimental: The efficacy of the compounds of the invention as κ-opioid receptor agonists was determined by measuring the ability of the compounds of Examples to inhibit adenylate cyclase activity.
# Cell culture: hamster ovary cells CHO stably expressing human κ-opioid receptor (KOR) gene were cultured in MEMα plus nucleosides medium (Invitrogen) containing 5% FBS.
# Stimulation: the test compound was 4-fold diluted in a gradient manner to obtain 11 concentrations, and 100 nl of each was transferred to a 384-well plate, and then a stimulating solution (5 uL) containing NKH477 (Tocris) was added; the cells were digested, re-suspended, and counted; and then the cells (5 uL) were added to wells, mixed gently, and incubated at 37° C. for 30 min.
# Detection: cAMP Assay Kit (Cisbio) was used, cAMP-D2 and Anti-cAMP-Cryptate were added separately, and the resultant mixture was incubated for 1 h at room temperature. The plate was read using envision (Perkin Elmer) and EC50 was obtained by means of fitting with a four-parameter equation.
# DOR = DOR (Homo sapiens, UniProt P41143); assay: Opioid receptor selectivity, radioligand competition binding (3H-DADLE) on cell membranes
# Experimental: (§1) The selectivity of the compounds of the invention for κ opioid receptors was determined by measuring the inhibitory effect of the compounds of Examples on the […] of KOR, MOR, and DOR.
# (§2) The compounds of Examples at different concentrations were incubated with the cell membrane with high expression of KOR, MOR, DOR and the corresponding radioligand (KOR: 3H-diprenophrine; MOR: 3H-DAMGO; DOR: 3H-DADLE) for 1 h, the compounds of Examples competed with the radioligands for binding to KOR, MOR, DOR. After the incubation, Cell harvest was used to collect cell membranes onto a Unifilter-96 GF/C filter plate, and the unbound radioligands were washed away. The plate was placed in a 50-degree oven for 1 h, and finally the scintillation solution Microscint 20 cocktail was added and the isotope signal was detected by MicroBeta2 Reader.
# (§3) According to the intensity of the isotope signal at different concentrations, the IC50 was calculated by means of fitting with a four-parameter equation, and the Ki value was calculated.
# (§4) The Ki value was calculated according to the formula Ki=IC50/(1+[radioligand]/Kd), and Kd was the equilibrium dissociation constant of radioligand.
# MOR = MOR (Homo sapiens, UniProt P35372); assay: Opioid receptor selectivity, radioligand competition binding (3H-DAMGO) on cell membranes
# Experimental: as §1, §2, §3, §4
# KOR = KOR (Homo sapiens, UniProt P41145); assay: Opioid receptor selectivity, radioligand competition binding (3H-diprenophrine) on cell membranes
# Experimental: as §1, §2, §3, §4
# male ICR mice = assay: Acetic acid-induced writhing test in mice; type: in vivo; set-up: ED50: unit not given here; details: for ED50: iv administration 15 min before 0.6% acetic acid ip, writhes counted within 15 min
# Experimental: The analgesic effect of the compound of the invention was evaluated by measuring the ED50 of the compounds of Examples in the acetic acid-induced writhing test in mice.
# The commercial glacial acetic acid solution was diluted with physiological saline to 0.6% glacial acetic acid solution. The male ICR mice were randomly separated into the drug group and the model group (to which physiological saline was administration). 15 minutes after iv administration, 0.6% acetic acid solution was intraperitoneally injected at 10 ml/kg, and the mice was immediately recorded with DV camera for 15 min. After the recording, the number of writhes of the mice within 15 min was counted from the video by blind method, the inhibition rate for the writhes was calculated according to Formula (I), and the ED50 of the compound was calculated according to Formula (II).
# (I) The inhibition rate for the writhes was calculated by the formula: Inhibition rate (%)=(the number of writhes in a model group−the number of writhes in a drug group)/the number of writhes in a model group*100.
# (II) The ED50 was calculated by the formula:
# [formula] wherein Xm was the logarithm of the highest dose, d was the difference in the logarithm of two adjacent doses, p was the inhibition rate for each dose group, pm was the highest-dose inhibition rate, and pn was the lowest-dose inhibition rate.
# [2] = Pharmacokinetic (PK) study in rats; type: in vivo; details: male SD rats, intravenous, 1 mg/kg; for AUC(0-t) / Cmax / Vd / half-life: rat, plasma
# Experimental: The pharmacokinetic profile of the compounds of Examples was studied by intravenous administration of the compounds of Examples to male SD rats. The dose for IV administration was 1 mg/kg, and the solvent was 5% DMSO: 5% solutol: 90% physiological saline. After IV administration, blood samples were collected at different time points for PK study. Plasma were treated by protein precipitation and then analyzed by LC-MS/MS.
# In LC-MS/MS, mass spectrum was API 5500, and liquid chromatography was Shimadzu LC-30AD system. The column used for the test groups of Compound 3 and Compound 4 was Thermo C18 column (4.6 mm×100 mm, 3 μm); for mobile phases, phase A was water+0.1% formic acid, and phase B was methanol; the flow rate was 0.8 mL/min, and the column temperature was 40° C. The column used for the test group of Compound 5 was Agela AQ C18 column (2.1 mm×50 mm, 1.9 μm); for mobile phases, phase A was water+0.05% formic acid+5 mM acetic acid ammonium, and phase B was methanol+0.05% formic acid; the flow rate was 0.6 mL/min, and the column temperature was 40° C. The ion source used was the ESI source in positive ion mode, and the scanning mode was Multiple Reaction Monitoring (MRM).
# [3] = CHO cells stably expressing human KOR, NKH477-stimulated cAMP, four-parameter fit, read-out: ED50 (the source's name)
# [4] = Ki=IC50/(1+[radioligand]/Kd), read-out: DOR Ki
# [5] = radioligand 3H-DADLE, 1 h incubation, read-out: DOR IC50
# [6] = Ki=IC50/(1+[radioligand]/Kd), read-out: MOR Ki
# [7] = radioligand 3H-DAMGO, 1 h incubation, read-out: MOR IC50
# [8] = Ki=IC50/(1+[radioligand]/Kd), read-out: KOR Ki
# [9] = radioligand 3H-diprenophrine, 1 h incubation, read-out: KOR IC50
SMILES,"EC50 [1, 3] [nM]",ED50 (male ICR mice),pharmacokinetic profile (in words) [2],AUC(0-t) [2] [ng·h/mL],Cmax [2] [ng/mL],Vd [2] [L/kg],half-life [2] [min],further results
"CC(C)C[C@@H](NC(=O)[C@@H](Cc1ccccc1)NC(=O)[C@H](N)Cc1ccccc1)C(=O)N[C@H](CCCCNC[C@@H](O)CO)C(=O)N1CCC(N)(C(=O)O)CC1 [Example 1, 4-amino-1-((R)-2-((R)-2-((R)-2-((R)-2-amino-3-phenylpropanamido)-3-phenylpropanamido)-4-methylpentanamido)-6-(((R)-2,3-dihydroxypropyl)amino)hexanoyl)piperidin-4-carboxylic acid]",0.09,–,–,–,–,–,–,–
"COCCOCCNCCCC[C@@H](NC(=O)[C@@H](CC(C)C)NC(=O)[C@@H](Cc1ccccc1)NC(=O)[C@H](N)Cc1ccccc1)C(=O)N1C2CC1CN(CC(=O)O)C2 [Example 24, 2-(6-((R)-2-((R)-2-((R)-2-((R)-2-amino-3-phenylpropanamido)-3-phenylpropanamido)-4-methylpentanamido)-6-((2-(2-methoxyethoxy)ethyl)amino)hexanoyl)-3,6-diazabicyclo[3.1.1]heptan-3-yl)acetic acid]",0.005,–,–,–,–,–,–,–
"CC(C)C[C@@H](NC(=O)[C@@H](Cc1ccccc1)NC(=O)[C@H](N)Cc1ccccc1)C(=O)N[C@H](CCCCNCCCN)C(=O)N1CCC(N)(C(=O)O)CC1 [Example 4, 4-amino-1-((R)-2-((R)-2-((R)-2-((R)-2-amino-3-phenylpropanamido)-3-phenylpropanamido)-4-methylpentanamido)-6-((3-aminopropyl)amino)hexanoyl)piperidin-4-carboxylic acid]",0.07,0.029,good exposure amount and Cmax,2410,3590,0.74,73.2,Ki (DOR; [4]): > 12000 nM; IC50 (DOR; [5]): > 20000 nM; Ki (MOR; [6]): > 7180 nM; IC50 (MOR; [7]): > 20000 nM; Ki (KOR; [8]): < 0.01 nM; IC50 (KOR; [9]): < 0.03 nM
"COCCOCCOCCOCCOCCOCCOCCNCCCC[C@@H](NC(=O)[C@@H](CC(C)C)NC(=O)[C@@H](Cc1ccccc1)NC(=O)[C@H](N)Cc1ccccc1)C(=O)N1CCC(N)(C(=O)O)CC1 [Example 6, 4-amino-1-((R)-28-((R)-2-((R)-2-((R)-2-amino-3-phenylpropanamido)-3-phenylpropanamido)-4-methylpentanamido)-2,5,8,11,14,17,20-heptaoxa-23-azanonacosan-29-oyl)piperidin-4-carboxylic acid]",–,0.036,good exposure amount and Cmax,2180,3660,0.2,17.4,"EC50 [1]: 0.11 nM; IC50 (DOR): > 20000 nM; Ki (DOR): > 12000 nM; IC50 (MOR): > 20000 nM; Ki (MOR): > 7180 nM; IC50 (KOR): 0.33 nM; Ki (KOR): 0.11 nM; KOR selectivity (in words) (KOR; KOR versus MOR and DOR binding): excellent KOR selectivity; analgesic effect (in words) (male ICR mice; acetic acid-induced writhing, mice, iv): significant analgesic effect"
"COCCOCCN(CCCC[C@@H](NC(=O)[C@@H](CC(C)C)NC(=O)[C@@H](Cc1ccccc1)NC(=O)[C@H](N)Cc1ccccc1)C(=O)N1CCC(N)(C(=O)O)CC1)CCOCCOC [Example 15, 4-amino-1-((R)-2-((R)-2-((R)-2-((R)-2-amino-3-phenylpropanamido)-3-phenylpropanamido)-4-methylpentanamido)-6-(di(2-(2-methoxyethoxy)ethyl)amino)hexanoyl)piperidin-4-carboxylic acid]",0.06,–,–,–,–,–,–,–
"COCCOCCNCCCC[C@@H](NC(=O)[C@@H](CC(C)C)NC(=O)[C@@H](Cc1ccccc1)NC(=O)[C@H](N)Cc1ccccc1)C(=O)N1CCC2(CC1)NC(=O)NC2=O [Example 23, 8-((R)-2-((R)-2-((R)-2-((R)-2-amino-3-phenylpropanamido)-3-phenylpropanamido)-4-methylpentanamido)-6-(2-(methoxyethoxy)ethylamino)hexanoyl)-1,3,8-triaza-spiro[4.5]decane-2,4-dione]",0.016,–,–,–,–,–,–,–
"CC(C)C[C@@H](NC(=O)[C@@H](Cc1ccccc1)NC(=O)[C@H](N)Cc1ccccc1)C(=O)N[C@H](CCCCNC[C@H](O)CO)C(=O)N1CCC(N)(C(=O)O)CC1 [Example 2, 4-amino-1-((R)-2-((R)-2-((R)-2-((R)-2-amino-3-phenylpropanamido)-3-phenylpropanamido)-4-methylpentanamido)-6-(((S)-2,3-dihydroxypropyl)amino)hexanoyl)piperidin-4-carboxylic acid]",0.08,–,–,–,–,–,–,–
"CC(C)C[C@@H](NC(=O)[C@@H](Cc1ccccc1)NC(=O)[C@H](N)Cc1ccccc1)C(=O)N[C@H](CCCCNCC(=O)O)C(=O)N1CCC(N)(C(=O)O)CC1 [Example 17, 4-amino-1-((R)-2-((R)-2-((R)-2-((R)-2-amino-3-phenylpropanamido)-3-phenylpropanamido)-4-methylpentanamido)-6-((carboxymethyl)amino)hexanoyl)piperidin-4-carboxylic acid]",0.42,–,–,–,–,–,–,–
"CC(C)C[C@@H](NC(=O)[C@@H](Cc1ccccc1)NC(=O)[C@H](N)Cc1ccccc1)C(=O)N[C@H](CCCCNC(CO)CO)C(=O)N1CCC(N)(C(=O)O)CC1 [Example 8, 4-amino-1-((R)-2-((R)-2-((R)-2-((R)-2-amino-3-phenylpropanamido)-3-phenylpropanamido)-4-methylpentanamido)-6-((1,3-dihydroxypropan-2-yl)amino)hexanoyl)piperidin-4-carboxylic acid]",0.03,–,–,–,–,–,–,–
"CC(C)C[C@@H](NC(=O)[C@@H](Cc1ccccc1)NC(=O)[C@H](N)Cc1ccccc1)C(=O)N[C@H](CCCCNCCN)C(=O)N1CCC(N)(C(=O)O)CC1 [Example 3, 4-amino-1-((R)-2-((R)-2-((R)-2-((R)-2-amino-3-phenylpropanamido)-3-phenylpropanamido)-4-methylpentanamido)-6-((2-aminoethyl)amino)hexanoyl)piperidin-4-carboxylic acid]",0.06,0.041,good exposure amount and Cmax,1790,2650,0.28,20.4,Ki (DOR; [4]): > 12000 nM; IC50 (DOR; [5]): > 20000 nM; Ki (MOR; [6]): > 7180 nM; IC50 (MOR; [7]): > 20000 nM; Ki (KOR; [8]): < 0.01 nM; IC50 (KOR; [9]): < 0.03 nM
